Measured values reported in ChEMBL document CHEMBL4024754, “Development of Potent, Protease-Resistant Agonists of the Parathyroid Hormone Receptor with Broad β Residue Distribution” (J Med Chem, 2017).
Numbered stars: 1 amine (or outer) side, 2 acyl side, 3 side chain; on linkers, the order of the positions; unused ones are H or OH. Square brackets hold non-standard residues; d marks the D form. Peptide text beside a SMILES is read from it. * marks the point of attachment. NH(1S,2S-2-CONH2-cPent) = NC(=O)[C@H]1CCC[C@@H]1N*; β3hW = N[C@H](CC(=O)O)Cc1c[nH]c2ccccc12; ACPC(1S,2S) = N[C@H]1CCC[C@@H]1C(=O)*; X1 = O=C([C@H]1CCC[C@@H]1N[*:1])[*:2]; X2 = O=C([C@H]1CNC[C@@H]1N[*:1])[*:2]; hArg = N=C(N)NCCCC[C@H](N)C(=O)O; β3hE = N[C@@H](CCC(=O)O)CC(=O)O; β3hF = N[C@H](CC(=O)O)Cc1ccccc1; β3hK = NCCCC[C@H](N)CC(=O)O; β3hM = CSCC[C@H](N)CC(=O)O; β3hD = NC(CC(=O)O)CC(=O)O; Aib = CC(C)(N)C(=O)O

Legend:
[1] = target: T1, Parathyroid hormone/parathyroid hormone-related peptide receptor (Homo sapiens, UniProt Q03431); assay: Agonist activity at human PTH1 receptor expressed in human GP2.3 cells assessed as induction of cAMP after 12 to 20 mins by luciferase reporter gene assay; format: functional, cell-based; conditions: read-out: EC50
T1 sequence (Q03431 whole entry): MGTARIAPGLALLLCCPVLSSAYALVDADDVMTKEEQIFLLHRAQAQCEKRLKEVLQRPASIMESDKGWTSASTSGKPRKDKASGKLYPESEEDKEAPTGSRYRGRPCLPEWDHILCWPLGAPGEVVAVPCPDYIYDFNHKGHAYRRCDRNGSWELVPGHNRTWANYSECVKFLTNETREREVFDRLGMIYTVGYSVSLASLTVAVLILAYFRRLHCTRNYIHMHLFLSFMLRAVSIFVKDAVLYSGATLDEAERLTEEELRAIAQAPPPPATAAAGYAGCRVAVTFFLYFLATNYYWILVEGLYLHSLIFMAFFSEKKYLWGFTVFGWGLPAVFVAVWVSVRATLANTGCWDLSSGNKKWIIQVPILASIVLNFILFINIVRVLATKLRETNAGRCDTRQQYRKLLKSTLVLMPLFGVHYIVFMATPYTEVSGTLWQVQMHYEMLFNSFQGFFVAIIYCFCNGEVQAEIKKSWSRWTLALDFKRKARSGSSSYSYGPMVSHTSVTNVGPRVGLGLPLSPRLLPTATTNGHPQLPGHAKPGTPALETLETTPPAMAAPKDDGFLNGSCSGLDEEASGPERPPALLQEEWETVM

[2] = target: T2, Parathyroid hormone/parathyroid hormone-related peptide receptor (Homo sapiens) (UniProt Q03431); assay: Agonist activity at human PTH1 receptor expressed in human GP2.3 cells assessed as induction of cAMP after 12 to 20 mins by luciferase reporter gene assay relative to PTH(1 to 34 residues)-NH2; format: functional, cell-based
T2 sequence (whole entry): T1 sequence (Q03431 whole entry)

CC[C@H](C)[C@H](NC(=O)[C@H](CCC(=O)O)NC(=O)[C@H](CO)NC(=O)[C@@H](NC(=O)[C@H]1CCC[C@@H]1N)C(C)C)C(=O)N[C@@H](CCC(N)=O)C(=O)N[C@H]1CCC[C@@H]1C(=O)N[C@@H](CCSC)C(=O)N[C@@H](Cc1cnc[nH]1)C(=O)N[C@@H](CC(N)=O)C(=O)N[C@@H](CC(C)C)C(=O)NCC(=O)N[C@@H](CCCCN)C(=O)N[C@H](CC(=O)N[C@@H](CC(C)C)C(=O)N[C@@H](CC(N)=O)C(=O)N[C@@H](CO)C(=O)N[C@@H](CCSC)CC(=O)N[C@@H](CCC(=O)O)C(=O)N[C@@H](CCCNC(=N)N)C(=O)N[C@H](C(=O)N[C@@H](CCC(=O)O)CC(=O)N[C@@H](Cc1c[nH]c2ccccc12)C(=O)N[C@@H](CC(C)C)C(=O)N[C@@H](CCCNC(=N)N)C(=O)N[C@@H](CCCCN)CC(=O)N[C@@H](CCCCN)C(=O)N[C@@H](CC(C)C)C(=O)N[C@@H](CCC(N)=O)C(=O)N[C@@H](CC(=O)O)CC(=O)N[C@H](C(=O)N[C@@H](Cc1cnc[nH]1)C(=O)N[C@@H](CC(N)=O)C(=O)N[C@H](CC(N)=O)Cc1ccccc1)C(C)C)C(C)C)Cc1c[nH]c2ccccc12 ({ACPC(1S,2S)}-VSEIQ[X1]MHNLGK[β3hW]LNS[β3hM]ERV[β3hE]WLR[β3hK]KLQ[β3hD]VHN[β3hF]-NH2)
EC50 [1]: 1.84 nM | fold change (FC) [2]: 22.6

CC[C@H](C)[C@H](NC(=O)[C@H](CCC(=O)O)NC(=O)C(C)(C)NC(=O)[C@@H](NC(=O)[C@H]1CCC[C@@H]1N)C(C)C)C(=O)N[C@@H](CCC(N)=O)C(=O)N[C@H]1CCC[C@@H]1C(=O)N[C@@H](CCSC)C(=O)N[C@@H](Cc1cnc[nH]1)C(=O)N[C@@H](CCC(N)=O)C(=O)N[C@@H](CCCCNC(=N)N)C(=O)N[C@@H](C)C(=O)N[C@@H](CCCCN)C(=O)N[C@H](CC(=O)N[C@@H](CC(C)C)C(=O)N[C@@H](CC(N)=O)C(=O)N[C@@H](CO)C(=O)N[C@@H](CCSC)CC(=O)N[C@@H](CCCNC(=N)N)C(=O)N[C@@H](CCCNC(=N)N)C(=O)N[C@H](C(=O)N[C@@H](CCC(=O)O)CC(=O)N[C@@H](Cc1c[nH]c2ccccc12)C(=O)N[C@@H](CC(C)C)C(=O)N[C@@H](CCCNC(=N)N)C(=O)N[C@@H](CCCCN)CC(=O)N[C@@H](CCCCN)C(=O)N[C@@H](CC(C)C)C(=O)N[C@@H](CCC(N)=O)C(=O)N[C@@H](CC(=O)O)CC(=O)N[C@H](C(=O)N[C@@H](Cc1cnc[nH]1)C(=O)N[C@@H](CC(N)=O)C(=O)N[C@H](CC(N)=O)Cc1ccccc1)C(C)C)C(C)C)Cc1c[nH]c2ccccc12 ({ACPC(1S,2S)}-V[Aib]EIQ[X1]MHQ[hArg]AK[β3hW]LNS[β3hM]RRV[β3hE]WLR[β3hK]KLQ[β3hD]VHN[β3hF]-NH2)
EC50 [1]: 0.83 nM | fold change (FC) [2]: 10

CSCC[C@@H](CC(=O)N[C@@H](CCC(=O)O)C(=O)N[C@@H](CCCNC(=N)N)C(=O)N[C@H](C(=O)N[C@@H](CCC(=O)O)CC(=O)N[C@@H](Cc1c[nH]c2ccccc12)C(=O)N[C@@H](CC(C)C)C(=O)N[C@@H](CCCNC(=N)N)C(=O)N[C@@H](CCCCN)CC(=O)N[C@@H](CCCCN)C(=O)N[C@@H](CC(C)C)C(=O)N[C@@H](CCC(N)=O)C(=O)N[C@@H](CC(=O)O)CC(=O)N[C@H](C(=O)N[C@@H](Cc1cnc[nH]1)C(=O)N[C@@H](CC(N)=O)C(=O)N[C@H](CC(N)=O)Cc1ccccc1)C(C)C)C(C)C)NC(=O)[C@H](CO)NC(=O)[C@H](CC(N)=O)NC(=O)[C@H](CC(C)C)NC(=O)C[C@H](Cc1c[nH]c2ccccc12)NC(=O)[C@H](CCCCN)NC(=O)CNC(=O)[C@H](CC(C)C)NC(=O)[C@H](CC(N)=O)NC(=O)[C@H](Cc1cnc[nH]1)NC(=O)[C@H](CCSC)NC(=O)[C@H]1CCC[C@@H]1NC(=O)[C@H](CCC(N)=O)NC(=O)[C@H]1CCC[C@@H]1NC(=O)[C@H](CCC(=O)O)NC(=O)[C@H](CO)NC(=O)[C@@H](NC(=O)[C@H]1CCC[C@@H]1N)C(C)C ({ACPC(1S,2S)}-VSE[X1]Q[X1]MHNLGK[β3hW]LNS[β3hM]ERV[β3hE]WLR[β3hK]KLQ[β3hD]VHN[β3hF]-NH2)
EC50 [1]: 167 nM | fold change (FC) [2]: 2050

CSCC[C@H](NC(=O)[C@H](CO)NC(=O)[C@H](CC(N)=O)NC(=O)[C@H](CC(C)C)NC(=O)[C@H](Cc1c[nH]c2ccccc12)NC(=O)[C@H](CCCCN)NC(=O)[C@H](C)NC(=O)[C@H](CCCCNC(=N)N)NC(=O)[C@H](CCC(N)=O)NC(=O)[C@H](Cc1cnc[nH]1)NC(=O)[C@H](CCSC)NC(=O)[C@H]1CCC[C@@H]1NC(=O)[C@H](CCC(N)=O)NC(=O)[C@H]1CCC[C@@H]1NC(=O)[C@H](CCC(=O)O)NC(=O)C(C)(C)NC(=O)[C@@H](NC(=O)[C@H]1CCC[C@@H]1N)C(C)C)C(=O)N[C@@H](CCCNC(=N)N)C(=O)N[C@@H](CCCNC(=N)N)C(=O)N[C@H](C(=O)N[C@@H](CCC(=O)O)C(=O)N[C@@H](Cc1c[nH]c2ccccc12)C(=O)N[C@@H](CC(C)C)C(=O)N[C@@H](CCCNC(=N)N)C(=O)N[C@@H](CCCCN)C(=O)N[C@@H](CCCCN)C(=O)N[C@@H](CC(C)C)C(=O)N[C@@H](CCC(N)=O)C(=O)N[C@@H](CC(=O)O)C(=O)N[C@H](C(=O)N[C@@H](Cc1cnc[nH]1)C(=O)N[C@@H](CC(N)=O)C(=O)N[C@@H](Cc1ccccc1)C(N)=O)C(C)C)C(C)C ({ACPC(1S,2S)}-V[Aib]E[X1]Q[X1]MHQ[hArg]AKWLNSMRRVEWLRKKLQDVHNF-NH2)
EC50 [1]: 0.4 nM | fold change (FC) [2]: 4.9

CC[C@H](C)[C@H](NC(=O)[C@H](CCC(=O)O)NC(=O)[C@H](C)NC(=O)[C@@H](NC(=O)[C@H](C)N)C(C)C)C(=O)N[C@@H](CCC(N)=O)C(=O)N[C@@H](CC(C)C)C(=O)N[C@@H](CCSC)C(=O)N[C@@H](Cc1cnc[nH]1)C(=O)N[C@@H](CCC(N)=O)C(=O)N[C@@H](CCCCNC(=N)N)C(=O)N[C@@H](C)C(=O)N[C@@H](CCCCN)C(=O)N[C@H]1CCC[C@@H]1C(=O)N[C@@H](CC(C)C)C(=O)N[C@@H](CC(N)=O)C(=O)N[C@@H](CO)C(=O)N[C@H]1CCC[C@@H]1C(=O)N[C@@H](CCCNC(=N)N)C(=O)N[C@@H](CCCNC(=N)N)C(=O)N[C@H](C(=O)N[C@H]1CNC[C@@H]1C(=O)N[C@@H](Cc1c[nH]c2ccccc12)C(=O)N[C@@H](CC(C)C)C(=O)N[C@@H](CCCNC(=N)N)C(=O)N[C@H]1CNC[C@@H]1C(=O)N[C@@H](CCCCN)C(=O)N[C@@H](CC(C)C)C(=O)N[C@@H](CCC(N)=O)C(=O)N[C@H]1CCC[C@@H]1C(=O)N[C@H](C(=O)N[C@@H](Cc1cnc[nH]1)C(=O)N[C@@H](CC(N)=O)C(=O)N[C@H]1CCC[C@@H]1C(N)=O)C(C)C)C(C)C (H-AVAEIQLMHQ[hArg]AK[X1]LNS[X1]RRV[X2]WLR[X2]KLQ[X1]VHN-{NH(1S,2S-2-CONH2-cPent)})
EC50 [1]: 0.51 nM | fold change (FC) [2]: 6.3

CSCC[C@@H](CC(=O)N[C@@H](CCCNC(=N)N)C(=O)N[C@@H](CCCNC(=N)N)C(=O)N[C@H](C(=O)N[C@@H](CCC(=O)O)CC(=O)N[C@@H](Cc1c[nH]c2ccccc12)C(=O)N[C@@H](CC(C)C)C(=O)N[C@@H](CCCNC(=N)N)C(=O)N[C@@H](CCCCN)CC(=O)N[C@@H](CCCCN)C(=O)N[C@@H](CC(C)C)C(=O)N[C@@H](CCC(N)=O)C(=O)N[C@@H](CC(=O)O)CC(=O)N[C@H](C(=O)N[C@@H](Cc1cnc[nH]1)C(=O)N[C@@H](CC(N)=O)C(=O)N[C@H](CC(N)=O)Cc1ccccc1)C(C)C)C(C)C)NC(=O)[C@H](CO)NC(=O)[C@H](CC(N)=O)NC(=O)[C@H](CC(C)C)NC(=O)C[C@H](Cc1c[nH]c2ccccc12)NC(=O)[C@H](CCCCN)NC(=O)[C@H](C)NC(=O)[C@H](CCCCNC(=N)N)NC(=O)[C@H](CCC(N)=O)NC(=O)[C@H](Cc1cnc[nH]1)NC(=O)[C@H](CCSC)NC(=O)[C@H]1CCC[C@@H]1NC(=O)[C@H](CCC(N)=O)NC(=O)[C@H]1CCC[C@@H]1NC(=O)[C@H](CCC(=O)O)NC(=O)C(C)(C)NC(=O)[C@@H](NC(=O)[C@H]1CCC[C@@H]1N)C(C)C ({ACPC(1S,2S)}-V[Aib]E[X1]Q[X1]MHQ[hArg]AK[β3hW]LNS[β3hM]RRV[β3hE]WLR[β3hK]KLQ[β3hD]VHN[β3hF]-NH2)
EC50 [1]: 0.79 nM | fold change (FC) [2]: 9.7

CC[C@H](C)[C@H](NC(=O)[C@H](CCC(=O)O)NC(=O)[C@H](C)NC(=O)[C@@H](NC(=O)[C@H](C)N)C(C)C)C(=O)N[C@@H](CCC(N)=O)C(=O)N[C@@H](CC(C)C)C(=O)N[C@@H](CCSC)C(=O)N[C@@H](Cc1cnc[nH]1)C(=O)N[C@@H](CCC(N)=O)C(=O)N[C@@H](CCCCNC(=N)N)C(=O)N[C@@H](C)C(=O)N[C@@H](CCCCN)C(=O)N[C@@H](Cc1c[nH]c2ccccc12)C(=O)N[C@@H](CC(C)C)C(=O)N[C@@H](CC(N)=O)C(=O)N[C@@H](CO)C(=O)N[C@@H](CCSC)C(=O)N[C@@H](CCCNC(=N)N)C(=O)N[C@@H](CCCNC(=N)N)C(=O)N[C@H](C(=O)N[C@@H](CCC(=O)O)C(=O)N[C@@H](Cc1c[nH]c2ccccc12)C(=O)N[C@@H](CC(C)C)C(=O)N[C@@H](CCCNC(=N)N)C(=O)N[C@@H](CCCCN)C(=O)N[C@@H](CCCCN)C(=O)N[C@@H](CC(C)C)C(=O)N[C@@H](CCC(N)=O)C(=O)N[C@@H](CC(=O)O)C(=O)N[C@H](C(=O)N[C@@H](Cc1cnc[nH]1)C(=O)N[C@@H](CC(N)=O)C(=O)N[C@@H](Cc1ccccc1)C(N)=O)C(C)C)C(C)C (H-AVAEIQLMHQ[hArg]AKWLNSMRRVEWLRKKLQDVHNF-NH2)
EC50 [1]: 0.34 nM | fold change (FC) [2]: 4.2
